Reference: patent US20130344055A1, “ANTIMICROBIAL AGENTS” (priority 2010, published 2013)
Read-outs that look alike come from different tables or passages of the source.

Tests used:
[1] = system: P. aeruginosa PAO1p; assay: In vitro antibacterial activity (log reduction) of modified OBPgpLys fusion variants; type: cell-based; conditions: 10^6 cells/ml, 30 minutes at RT
Method: (§1) Exponential growing Gram-negative bacterial cells (OD600 nm=0.6) were 100-fold diluted to a final density of about 10^6 cells/ml in 5 mM HEPES pH 7.4 and incubated for 30 minutes at room temperature without shaking with the different modified OBPgpLYS variants (in Elution Buffer in an end concentration of 1500 nM). After incubation cell suspensions and as a control untreated bacterial cells without any added modified OBPgpLYS variant were diluted three times (respectively 10^5-10^4-10^3 cells/ml) in 1× concentrated PBS buffer and 100 μl of each dilution was plated out on LB-medium. […] All samples were replicated in threefold. Averages +/− standard deviations are represented.
(§2) The production of OBPgpLys with two peptide stretches is described above in Example 1. Moreover, the purification of the fusion proteins and the antimicrobial activity assay was performed as described already in Example 1.

[2] = system: P. putida G1; assay: as above; type: cell-based; conditions: 10^6 cells/ml, 30 minutes at RT
Method: as §1, §2

[3] = system: E. coli XL1 blue; type: cell-based; conditions: for Average log reduction, E. coli. X1-1: Table 9, with EDTA 0.5 mM
Method: (§3) . After incubation cell suspensions and as a control untreated bacterial cells without any added modified OBPgpLYS variant were diluted three times (respectively 10^5-10^4-10^3 cells/ml) in 1× concentrated PBS buffer and 100 μl of each dilution was plated out on LB-medium. […] All samples were replicated in threefold. Averages +/− standard deviations are represented.
as §2

[4] = system: S. typhimurium LT2; assay: In vitro antibacterial activity (log reduction) of modified OBPgpLys fusion variants; type: cell-based, Salmonella typhimurium; conditions: 10^6 cells/ml, 30 minutes at RT; for Average log reduction, Salmonella typhimurium LT2: Table 9, with EDTA 0.5 mM; for Average log reduction, S. typhimurium LT2: 1500 nM protein
Method: as §3, with “After” for “. After”
as §2

[5] = system: Staphylococcus bacteria; assay: In vitro antibacterial activity of Lysostaphin and LysK fusion variants; type: cell-based; conditions: with EDTA 0.5 mM, 10^6 cells/ml, 30 minutes at RT
[6] = with EDTA 0.5 mM (B), 1500 nM protein
[7] = without EDTA (A), 1500 nM protein
[8] = 10^6 cells/ml, 30 minutes at RT
[9] = with EDTA 0.5 mM (B), 1500 nM protein, 10^6 cells/ml, 30 minutes at RT
[10] = without EDTA (A), 1500 nM protein, 10^6 cells/ml, 30 minutes at RT

## PK-α4-OBPgpLys: polycationic peptide PK, then α4-helix of T4-lysozyme, N-terminally fused to endolysin OBPgpLys
[1]; Table 9, with EDTA 0.5 mM
  Average log reduction, P. aeruginosa PAO1p: +++ (+++: 4 or more logs)
[1]; [6]
  Average log reduction, P. aeruginosa PAO1p: 5.07 log
[1]; [7]
  Average log reduction, P. aeruginosa PAO1p: 1.10 log
[2]; Table 9, with EDTA 0.5 mM
  Average log reduction, P. putida G1: ++ (++: 2-3 log)
[2]; [6]
  Average log reduction, P. putida G1: 2.97 log
[2]; [7]
  Average log reduction, P. putida G1: 0.01 log
[3]; [8]
  Average log reduction, E. coli. X1-1: ++ (++: 2-3 log)
[3]; [9]
  Average log reduction, E. coli XL1 blue: 0.86 log
[3]; [10]
  Average log reduction, E. coli XL1 blue: 0.54 log
[4]
  Average log reduction, Salmonella typhimurium LT2: + (+: 1 log)
[4]; with EDTA 0.5 mM (B)
  Average log reduction, S. typhimurium LT2: 0.29 log
[4]; without EDTA (A)
  Average log reduction, S. typhimurium LT2: 0.23 log

## PK-Pentapeptide-OBPgplys: polycationic peptide PK, then hydrophobic pentapeptide FFVAP, N-terminally fused to endolysin OBPgpLys
[1]; Table 9, with EDTA 0.5 mM
  Average log reduction, P. aeruginosa PAO1p: +++ (+++: 4 or more logs)
[1]; [6]
  Average log reduction, P. aeruginosa PAO1p: 4.00 log
[1]; [7]
  Average log reduction, P. aeruginosa PAO1p: 0.95 log
[2]; Table 9, with EDTA 0.5 mM
  Average log reduction, P. putida G1: +++ (+++: 4 or more logs)
[2]; [6]
  Average log reduction, P. putida G1: 3.24 log
[2]; [7]
  Average log reduction, P. putida G1: 0.80 log
[3]; [8]
  Average log reduction, E. coli. X1-1: ++ (++: 2-3 log)
[3]; [9]
  Average log reduction, E. coli XL1 blue: 2.12 log
[3]; [10]
  Average log reduction, E. coli XL1 blue: 1.69 log
[4]
  Average log reduction, Salmonella typhimurium LT2: + (+: 1 log)
[4]; with EDTA 0.5 mM (B)
  Average log reduction, S. typhimurium LT2: 0.42 log
[4]; without EDTA (A)
  Average log reduction, S. typhimurium LT2: 0.22 log

## Walmagh1-PK-OBPgpLYS: hydrophobic peptide Walmagh 1, then PK, N-terminally fused to endolysin OBPgpLys
[1]; [6]
  Average log reduction, P. aeruginosa PAO1p: 3.66 log
[1]; [7]
  Average log reduction, P. aeruginosa PAO1p: 0.20 log
[2]; [6]
  Average log reduction, P. putida G1: 3.22 log
[2]; [7]
  Average log reduction, P. putida G1: 0.29 log
[3]; [9]
  Average log reduction, E. coli XL1 blue: 1.70 log
[3]; [10]
  Average log reduction, E. coli XL1 blue: 1.46 log
[4]; with EDTA 0.5 mM (B)
  Average log reduction, S. typhimurium LT2: 0.17 log
[4]; without EDTA (A)
  Average log reduction, S. typhimurium LT2: 0.12 log

## Sarcotoxin IA-Lysostaphin: Lysostaphin fusion variant with one peptide stretch, Sarcotoxin IA, N-terminal
[5]; Lysostaphin variants
  Average log reduction, Staphylococcus: ++ (++: 2-3 log)

## Parasin1-PK-OBPgpLys: antimicrobial peptide Parasin 1, then PK, N-terminally fused to endolysin OBPgpLys
[1]; Table 9, with EDTA 0.5 mM
  Average log reduction, P. aeruginosa PAO1p: +++ (+++: 4 or more logs)
[1]; [6]
  Average log reduction, P. aeruginosa PAO1p: 4.92 log
[1]; [7]
  Average log reduction, P. aeruginosa PAO1p: 0.75 log
[2]; Table 9, with EDTA 0.5 mM
  Average log reduction, P. putida G1: ++ (++: 2-3 log)
[2]; [6]
  Average log reduction, P. putida G1: 2.32 log
[2]; [7]
  Average log reduction, P. putida G1: 0.16 log
[3]; [8]
  Average log reduction, E. coli. X1-1: ++ (++: 2-3 log)
[3]; [9]
  Average log reduction, E. coli XL1 blue: 1.00 log
[3]; [10]
  Average log reduction, E. coli XL1 blue: 0.70 log
[4]
  Average log reduction, Salmonella typhimurium LT2: + (+: 1 log)
[4]; with EDTA 0.5 mM (B)
  Average log reduction, S. typhimurium LT2: 0.28 log
[4]; without EDTA (A)
  Average log reduction, S. typhimurium LT2: 0.27 log

## α4-PK-OBPgpLys: α4-helix of T4-lysozyme, then polycationic peptide PK, N-terminally fused to endolysin OBPgpLys
[1]; Table 9, with EDTA 0.5 mM
  Average log reduction, P. aeruginosa PAO1p: +++ (+++: 4 or more logs)
[1]; [6]
  Average log reduction, P. aeruginosa PAO1p: 5.23 log
[1]; [7]
  Average log reduction, P. aeruginosa PAO1p: 0.59 log
[2]; Table 9, with EDTA 0.5 mM
  Average log reduction, P. putida G1: ++ (++: 2-3 log)
[2]; [6]
  Average log reduction, P. putida G1: 2.98 log
[2]; [7]
  Average log reduction, P. putida G1: 0.02 log
[3]; [8]
  Average log reduction, E. coli. X1-1: + (+: 1 log)
[3]; [9]
  Average log reduction, E. coli XL1 blue: 0.58 log
[3]; [10]
  Average log reduction, E. coli XL1 blue: 0.55 log
[4]
  Average log reduction, Salmonella typhimurium LT2: + (+: 1 log)
[4]; with EDTA 0.5 mM (B)
  Average log reduction, S. typhimurium LT2: 0.35 log
[4]; without EDTA (A)
  Average log reduction, S. typhimurium LT2: 0.22 log

## Lysostaphin-Sarcotoxin IA: Lysostaphin fusion variant with one peptide stretch, Sarcotoxin IA, C-terminal
[5]; Lysostaphin variants
  Average log reduction, Staphylococcus: ++ (++: 2-3 log)

## OBPgpLYS: endolysin of Pseudomonas putida phage OBP, without peptide stretch
[1]; Table 9, with EDTA 0.5 mM
  Average log reduction, P. aeruginosa PAO1p: + (+: 1 log)
[2]; Table 9, with EDTA 0.5 mM
  Average log reduction, P. putida G1: + (+: 1 log)
[3]; [8]
  Average log reduction, E. coli. X1-1: + (+: 1 log)
[4]
  Average log reduction, Salmonella typhimurium LT2: + (+: 1 log)

## Lysostaphin: bacteriocin degrading Staphylococcus cell walls
[5]; Lysostaphin variants
  Average log reduction, Staphylococcus: + (+: 1 log)

## O=C(O)CN(CCN(CC(=O)O)CC(=O)O)CC(=O)O [EDTA, reference compound]
[1]; [6]
  Average log reduction, P. aeruginosa PAO1p: 1.82 log
[2]; [6]
  Average log reduction, P. putida G1: 0.65 log
[3]
  Average log reduction, E. coli XL1 blue: 0.85 log

## Walmagh2-PK-OBPgplys: amphiphatic peptide Walmagh 2, then PK, N-terminally fused to endolysin OBPgpLys
[1]; Table 9, with EDTA 0.5 mM
  Average log reduction, P. aeruginosa PAO1p: +++ (+++: 4 or more logs)
[1]; [6]
  Average log reduction, P. aeruginosa PAO1p: 3.91 log
[1]; [7]
  Average log reduction, P. aeruginosa PAO1p: 0.57 log
[2]; Table 9, with EDTA 0.5 mM
  Average log reduction, P. putida G1: ++ (++: 2-3 log)
[2]; [6]
  Average log reduction, P. putida G1: 2.60 log
[2]; [7]
  Average log reduction, P. putida G1: 0.00 log
[3]; [8]
  Average log reduction, E. coli. X1-1: ++ (++: 2-3 log)
[3]; [9]
  Average log reduction, E. coli XL1 blue: 1.86 log
[3]; [10]
  Average log reduction, E. coli XL1 blue: 1.68 log
[4]
  Average log reduction, Salmonella typhimurium LT2: + (+: 1 log)
[4]; with EDTA 0.5 mM (B)
  Average log reduction, S. typhimurium LT2: 0.25 log
[4]; without EDTA (A)
  Average log reduction, S. typhimurium LT2: 0.17 log

## Lycotoxin1-PK-OBPgpLYS: antimicrobial peptide Lycotoxin 1, then PK, N-terminally fused to endolysin OBPgpLys
[1]; Table 9, with EDTA 0.5 mM
  Average log reduction, P. aeruginosa PAO1p: +++ (+++: 4 or more logs)
[1]; [6]
  Average log reduction, P. aeruginosa PAO1p: 3.73 log
[1]; [7]
  Average log reduction, P. aeruginosa PAO1p: 0.08 log
[2]; Table 9, with EDTA 0.5 mM
  Average log reduction, P. putida G1: ++ (++: 2-3 log)
[2]; [6]
  Average log reduction, P. putida G1: 2.26 log
[2]; [7]
  Average log reduction, P. putida G1: 0.56 log
[3]; [8]
  Average log reduction, E. coli. X1-1: ++ (++: 2-3 log)
[3]; [9]
  Average log reduction, E. coli XL1 blue: 0.90 log
[3]; [10]
  Average log reduction, E. coli XL1 blue: 0.41 log
[4]
  Average log reduction, Salmonella typhimurium LT2: + (+: 1 log)
[4]; with EDTA 0.5 mM (B)
  Average log reduction, S. typhimurium LT2: 0.29 log
[4]; without EDTA (A)
  Average log reduction, S. typhimurium LT2: 0.17 log

B1: LysK: endolysin LysK (protein)
chain: MAKTQAEINKRLDAYAKGTVDSPYRVKKATSYDPSFGVMEAGAIDADGYYHAQCQDLITDYVLWLTDNKVRTWGNAKDQIKQSYGTGFKIHENKPSTVPKKGWIAVFTSGSYEQWGHIGIVYDGGNTSTFTILEQNWNGYANKKPTKRVDNYYGLTHFIEIPVKAGTTVKKETAKKSASKTPAPKKKATLKVSKNHINYTMDKRGKKPEGMVIHNDAGRSSGQQYENSLANAGYARYANGIAHYYGSEGYVWEAIDAKNQIAWHTGDGTGANSGNFRFAGIEVCQSMSASDAQFLKNEQAVFQFTAEKFKEWGLTPNRKTVRLHMEFVPTACPHRSMVLHTGFNPVTQGRPSQAIMNKLKDYFIKQIKNYMDKGTSSSTVVKDGKTSSASTPATRPVTGSWKKNQYGTWYKPENATFVNGNQPIVTRIGSPFLNAPVGGNLPAGATIVYDEVCIQAGHIWIGYNAYNGNRVYCPVRTCQGVPPNQIPGVAWGVFK
modifications: Staphylococcus aureus Phage K
[5]; LysK variants
  Average log reduction, Staphylococcus: + (+: 1 log)

B2: PK2-LysK: LysK fusion variant with one peptide stretch, PK2 (protein)
chain: MKRKKRKKRKKRKKRKKRKAKTQAEINKRLDAYAKGTVDSPYRVKKATSYDPSFGVMEAGAIDADGYYHAQCQDLITDYVLWLTDNKVRTWGNAKDQIKQSYGTGFKIHENKPSTVPKKGWIAVFTSGSYEQWGHIGIVYDGGNTSTFTILEQNWNGYANKKPTKRVDNYYGLTHFIEIPVKAGTTVKKETAKKSASKTPAPKKKATLKVSKNHINYTMDKRGKKPEGMVIHNDAGRSSGQQYENSLANAGYARYANGIAHYYGSEGYVWEAIDAKNQIAWHTGDGTGANSGNFRFAGIEVCQSMSASDAQFLKNEQAVFQFTAEKFKEWGLTPNRKTVRLHMEFVPTACPHRSMVLHTGFNPVTQGRPSQAIMNKLKDYFIKQIKNYMDKGTSSSTVVKDGKTSSASTPATRPVTGSWKKNQYGTWYKPENATFVNGNQPIVTRIGSPFLNAPVGGNLPAGATIVYDEVCIQAGHIWIGYNAYNGNRVYCPVRTCQGVPPNQIPGVAWGVFK
[5]; LysK variants
  Average log reduction, Staphylococcus: ++ (++: 2-3 log)
